# In patent publication US12433871B2, “Effects of age-dependent changes in cell size on endothelial cell growth” (The Medical College of Wisconsin, Inc., priority 2019, dated 2025):
# Key:
# YAP1 [1] = test: YAP1 nuclear localization in aged ECs cultured on FN-coated microcontact-printed islands; assay type: cell-based, human; details: aged ECs on the large island (2500 μm2), ML141 500 nM, compared to those without ML141 treatment
# Description: To directly analyze whether EC size controls YAP1 activity, we prepared microcontact-printed substrates consisting of square FN-coated islands (600-2500 μm2) surrounded by non-adhesive regions, in which we directly stamped FN (50 μg/ml) onto activated polydimethylsiloxane-coated cover slips and blocked unstamped areas with Pluronic F-127 [49, 50]. […] In contrast, when we cultured 24M old mouse lung ECs on the large islands, YAP1 was excluded from the nucleus, while YAP1 was in the nucleus on the medium size islands (FIGS. 6D and 6E).
# (§1) In an in vitro cell culture study human adipose endothelial cells were treated with ML141 (500 nM with DMSO). In an in vivo mouse study hydrogel mixed with young or aged human endothelial cells or in combination with ML141 (500 nM with DMSO) was implanted on the back of the immunocompromised mouse. One week later, the gel was removed and analyzed blood vessel formation using immunohistochemical analysis.
# Microcontact printing system—Stamps were created using soft lithography as described previously. Polydimethylsiloxane (PDMS) stamps were made by casting the polymer against master molds made by standard photolithography using the negative photoresist SU-8 (MicroChem). Substrates for stamping were fabricated by spin-coating a thin layer of PDMS (Sylgard-184, Dow Corning) onto glass coverslips. […]
# aged human adipose ECs = test: Mouse subcutaneous fibrin gel implantation (blood vessel formation and dextran leakage); assay type: in vivo, NSG mouse
# Description: as §1
# Mouse subcutaneous fibrin gel implantation—The in vivo animal study was carried out in strict accordance with the recommendations in the Guide for the Care and Use of Laboratory Animals of the National Institutes of Health. The protocol was reviewed and approved by the Animal Care and Use Committee of Medical College of Wisconsin. NOD scid gamma (NSG) mice (8 week old; Jackson Laboratory) and C57BL6 mice (Jackson Laboratory and NIA/NIH rodent colonies) were used for the study. Fibrin gel was fabricated as described. […] Vascular network formation of GFP-labeled human adipose ECs was evaluated by measuring the area and length of GFP-labeled blood vessels from five different areas of the gel. The vascular permeability was measured using low MW fluorescently labeled dextran (MW 4000, Sigma) leakage. […]
# YAP1 [2] = test: Immunoblot of YAP1S127 phosphorylation in aged human adipose ECs treated with ML141; assay type: cell-based; details: ML141 500 nM, compared to those without ML141 treatment
# Description: (§2) FIGS. 3A-3F show CDC42-YAP1 mediates cell size-dependent changes in EC senescence in aged ECs. (FIG. 3A) Representative immunoblots showing YAP1, YAP1S127 phosphorylation, and β-actin protein levels in ECs isolated from >50 y.o. human adipose tissues treated with retrovirus overexpressing full-length YAP1 or YAP1S127A (left). Graph showing the quantification of immunoblots (right, n=3, *, p<0.05). (FIG. 3B) IF micrographs showing P16^INK4A expression and DAPI in ECs isolated from >50 y.o. human adipose tissues treated with retrovirus overexpressing full-length YAP1 or YAP1S127A, cultured on FN-coated island of different sizes. Scale bar, 10 (FIG. 3C) Graph showing quantification of P16^INK4A integrated density (n=7, mean±s.e.m., *, p<0.05). […] Graph showing quantification of GTP-CDC42 integrated density (n=7, mean±s.e.m., *, p<0.05). […] Graph showing the quantification of immunoblots (bottom, n=3, *, p<0.05). […] Scale bar, Graphs showing quantification of P16^INK4A integrated density (bottom left) and nuclear YAP1 (bottom right) (n=7, mean±s.e.m., *, p<0.05).
# (§3) In an in vitro cell culture study human adipose endothelial cells were treated with ML141 (500 nM with DMSO). […] One week later, the gel was removed and analyzed blood vessel formation using immunohistochemical analysis.
# CDC42 = target: T1, CDC42 (Homo sapiens, UniProt P60953); test: GTP-CDC42 levels by immunofluorescence in aged human adipose ECs treated with ML141; assay type: cell-based; details: ECs from >50 y.o. human adipose tissues, ML141 500 nM
# T1 construct: endogenous in cells; host or cells: primary endothelial cells isolated from >50 y.o. human adipose tissue
# Description: as §2, §3
# [3] = system: ECs isolated from >50 y.o. human adipose tissues; test: EC senescence (p16INK4A staining) in aged ECs cultured on FN-coated microcontact-printed islands; assay type: cell-based; details: aged ECs on the large island (2500 μm2), ML141 500 nM, compared to those without ML141 treatment
# Description: as §1
# EC proliferation was analyzed by a BrdU incorporation assay or a Click-iT® Plus EdU Proliferation Assay. Mouse lung and human adipose ECs were plated in EBM2 with 2% serum, pulsed with 5 μM BrdU for 16 h, immunostained and imaged using a confocal Leica SP5 microscope. Cellular senescence was characterized using a SA-β galactosidase assay kit (cell signaling) or anti-P16^INK4A staining. The specificity of P16^INK4A staining was confirmed by 2nd Ab alone staining (Supplementary FIG. 1D). The microscopic images were analyzed on at least five images using imageJ software (NIH) and the same contrast and brightness were used to compare the images.
# Microcontact printing system—Stamps were created using soft lithography as described previously. Polydimethylsiloxane (PDMS) stamps were made by casting the polymer against master molds made by standard photolithography using the negative photoresist SU-8 (MicroChem). […]
# T1 sequence (P60953 whole entry): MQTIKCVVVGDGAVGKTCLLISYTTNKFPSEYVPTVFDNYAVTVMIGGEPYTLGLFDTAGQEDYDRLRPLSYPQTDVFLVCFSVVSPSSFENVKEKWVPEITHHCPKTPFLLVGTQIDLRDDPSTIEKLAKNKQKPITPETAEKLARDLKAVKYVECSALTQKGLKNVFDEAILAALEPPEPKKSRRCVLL
smiles,measurement,setting,value
COc1ccc(C2CC(c3ccccc3)=NN2c2ccc(S(N)(=O)=O)cc2)cc1 (stereo not drawn) [ML141],"levels of nuclear YAP1, times higher",YAP1 [1],1.2 times
same,"aged EC-derived blood vessel length, times longer","aged human adipose ECs; fibrin gel with aged human adipose ECs, ML141 500 nM in gel, subcutaneous in NSG mouse, 7 days",2.5 times
same,leakage of fluorescently labeled dextran in the gel,"aged human adipose ECs; gel with aged ECs, ML141 500 nM, dextran by systemic injection",attenuated the leakage of dextran
same,decrease in YAP1S127 phosphorylation,YAP1 [2],72%
same,CDC42 activity (GTP-CDC42 integrated density),CDC42,Inhibition of CDC42 activity
same,"intensity of senescence marker p16INK4A, lower",[3],45%
